Patent US20230227405A1, “5-OXOPYRROLIDINE-3-CARBOXAMIDES AS NAV1.8 INHIBITORS” (MERCK SHARP & DOHME CORP., priority 2020, published 2023)

Biological target: T1, human Nav1.8 (Homo sapiens, UniProt Q9Y5Y9)
T1 construct: expressed in transfected cells
Experiment: Qube® automated patch-clamp assay, Nav1.8
Assay type: cell-based
Settings: human Nav1.8 stably expressed in HEK 293 cells; whole-cell voltage clamp, room temperature; read-out: IC50 values (nM) for Examples in the Nav1.8 Qube® Assay
Experimental: Compounds were tested on human Nav1.8 and Nav1.5 channels stably expressed in human embryo kidney (HEK) 293 cells. Sodium current measurements on Qube® were conducted as follows: automated 384-well patch-clamp assays on the Qube® platform (Sophion Biosciences) were used to measure the inhibition of sodium flow through human Nav1.8 and Nav1.5 channels. Whole-cell voltage-clamp recordings were performed in QChips® (Sophion Biosciences) at room temperature. Nav1.8 current measurements on Qube® were obtained as follows: Nav1.8 currents were elicited with a 10 second 1 Hertz (Hz) pulse train from a holding potential of −90 millivolts (mV), delivered to the cells once per minute in the control condition (DMSO only) and after compound addition. The 1 hertz pulse train stimulation consisted of ten test pulses to 10 millivolt (mV) for 20 milliseconds (ms), each of which was followed by a 980 millisecond repolarization to −67 millivolts. At the end of the 10 second pulse train stimulation, a 5 second hyperpolarization step to −100 millivolt (mV) was used to recover Nav1.8 from fast inactivation. The peak currents elicited by the 1st and 10th test pulses were used to determine IC50 values for resting inhibition and inactivated state inhibition. Nav1.5 current measurements on Qube® were obtained as follows: Nav1.5 currents were elicited with a 20 second 3 Hertz pulse train in the control condition (DMSO only) and after compound addition. The pulse train consisted of sixty 20 millisecond test pulses to 0 millivolt from a holding potential of −80 millivolt (mV). The average peak currents elicited by the last 3 test pulses were used to determine IC50 values for Nav1.5 inhibition.
The following buffers were used for the Qube® recordings: External buffer for Nav1.8 Qube® recording: 150 NaCl, 2 CaCl2, 5 KCl, 1 Mg Cl2, 10 HEPES, 12 Dextrose; External buffer for Qube® Nav1.5 recording: 120 N-Methyl-D-Glucamine, 40 NaCl, 1 KCl, 2.7 CaCl2, 5 HEPES, 0.5 MgCl2; and Internal buffer for Qube® recording: 120 CsF, 30 CsCl, 10 EGTA, 5 HEPES, 5 NaF, 2 MgCl2.
For all Qube® experiments offline analysis was used to determine percent inhibition as a function of drug concentration. IC50 values were determined by fitting to the Hill equation.

T1 sequence (Q9Y5Y9 whole entry): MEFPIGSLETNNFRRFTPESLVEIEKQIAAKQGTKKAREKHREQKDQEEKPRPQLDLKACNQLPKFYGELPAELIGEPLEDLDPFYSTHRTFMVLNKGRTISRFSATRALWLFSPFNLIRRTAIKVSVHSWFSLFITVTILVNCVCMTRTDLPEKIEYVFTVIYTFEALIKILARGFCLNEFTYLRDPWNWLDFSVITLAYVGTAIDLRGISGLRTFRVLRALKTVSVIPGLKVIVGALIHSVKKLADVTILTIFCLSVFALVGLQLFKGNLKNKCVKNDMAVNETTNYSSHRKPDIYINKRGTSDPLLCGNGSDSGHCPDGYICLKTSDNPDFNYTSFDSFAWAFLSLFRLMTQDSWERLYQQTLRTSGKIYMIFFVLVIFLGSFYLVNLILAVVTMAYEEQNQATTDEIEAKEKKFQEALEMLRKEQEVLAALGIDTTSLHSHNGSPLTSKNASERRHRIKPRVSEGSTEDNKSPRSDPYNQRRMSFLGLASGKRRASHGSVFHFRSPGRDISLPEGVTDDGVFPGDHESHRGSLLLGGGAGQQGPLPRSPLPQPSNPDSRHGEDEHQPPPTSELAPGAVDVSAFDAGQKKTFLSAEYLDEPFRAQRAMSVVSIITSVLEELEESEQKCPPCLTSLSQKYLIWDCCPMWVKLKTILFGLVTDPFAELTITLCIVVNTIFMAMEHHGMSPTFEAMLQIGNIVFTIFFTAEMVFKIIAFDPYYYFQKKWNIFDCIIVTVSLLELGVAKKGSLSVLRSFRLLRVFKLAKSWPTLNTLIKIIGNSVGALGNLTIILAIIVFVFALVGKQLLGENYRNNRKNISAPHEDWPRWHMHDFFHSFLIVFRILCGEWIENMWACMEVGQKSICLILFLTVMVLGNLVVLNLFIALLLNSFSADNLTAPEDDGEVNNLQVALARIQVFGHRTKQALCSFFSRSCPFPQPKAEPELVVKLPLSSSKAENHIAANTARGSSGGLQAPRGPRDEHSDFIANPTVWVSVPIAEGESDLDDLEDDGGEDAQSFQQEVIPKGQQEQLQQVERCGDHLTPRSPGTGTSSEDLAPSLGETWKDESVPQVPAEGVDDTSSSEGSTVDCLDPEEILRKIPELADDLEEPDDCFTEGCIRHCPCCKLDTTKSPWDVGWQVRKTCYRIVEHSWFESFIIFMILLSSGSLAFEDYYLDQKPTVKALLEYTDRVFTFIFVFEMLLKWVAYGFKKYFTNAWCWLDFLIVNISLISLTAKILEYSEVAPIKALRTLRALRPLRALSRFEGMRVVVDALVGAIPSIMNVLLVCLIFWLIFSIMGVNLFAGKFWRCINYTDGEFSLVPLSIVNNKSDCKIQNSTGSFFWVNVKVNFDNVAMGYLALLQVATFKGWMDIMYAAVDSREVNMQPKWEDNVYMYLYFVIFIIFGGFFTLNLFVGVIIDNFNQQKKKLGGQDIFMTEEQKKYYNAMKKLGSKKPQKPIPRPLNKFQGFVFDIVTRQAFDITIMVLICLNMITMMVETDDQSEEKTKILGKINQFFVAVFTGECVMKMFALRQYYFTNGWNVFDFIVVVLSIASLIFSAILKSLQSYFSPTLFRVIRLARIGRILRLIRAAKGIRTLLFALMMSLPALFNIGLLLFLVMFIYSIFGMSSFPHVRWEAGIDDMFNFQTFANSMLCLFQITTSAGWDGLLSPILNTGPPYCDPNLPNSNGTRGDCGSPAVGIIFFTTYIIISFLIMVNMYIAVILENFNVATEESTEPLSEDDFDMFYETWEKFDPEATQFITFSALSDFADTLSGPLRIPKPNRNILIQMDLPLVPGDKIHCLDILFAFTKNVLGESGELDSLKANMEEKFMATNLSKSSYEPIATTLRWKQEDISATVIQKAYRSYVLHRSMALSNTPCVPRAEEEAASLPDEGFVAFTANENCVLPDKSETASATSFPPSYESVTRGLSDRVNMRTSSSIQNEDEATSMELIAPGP

Row | SMILES | IC50
1 | CC1C(=O)NCC1C(=O)NC(c1ccc(Cl)cc1)c1ccc(Cl)cc1 (single isomer, unassigned) [Example 27A, (3(R or S),4(R or S)—N-(bis(4-chlorophenyl)methyl)-4-methyl-5-oxopyrrolidine-3-carboxamide] | 7460 nM
2 | CC1C(=O)NCC1C(=O)NC(c1ccc(Cl)cc1)c1ccc(Cl)cc1 (single isomer, unassigned) [Example 27B, (3(R or S),4(R or S)—N-(bis(4-chlorophenyl)methyl)-4-methyl-5-oxopyrrolidine-3-carboxamide] | 277 nM
3 | CC1(C)CC(C(NC(=O)[C@@H]2CNC(=O)C2)c2ccc(F)c(Cl)c2F)C1 (single isomer, unassigned) [Example 21B, (S—N—((R or S)-(3-chloro-2,4-difluorophenyl)(3,3-dimethylcyclobutyl)methyl)-5-oxopyrrolidine-3-carboxamide] | 17 nM
4 | O=C1C[C@H](C(=O)NC(c2cnc(C(F)(F)F)c(Cl)c2)c2ccc(F)c(Cl)c2F)CN1 (single isomer, unassigned) [Example 15, (S—N—((R or S)-(3-chloro-2,4-difluorophenyl)(5-chloro-6-(trifluoromethyl)pyridin-3-yl)methyl)-5-oxopyrrolidine-3-carboxamide] | 4.2 nM
5 | CC1C(=O)NCC1C(=O)NC(c1ccc(Cl)cc1)c1ccc(Cl)cc1 (single isomer, unassigned) [Example 27C, (3(R or S),4(R or S)—N-(bis(4-chlorophenyl)methyl)-4-methyl-5-oxopyrrolidine-3-carboxamide] | 3480 nM
6 | O=C1C[C@H](C(=O)NC(c2ccc(Cl)cc2)c2ccc(C3CC3)cc2)CN1 (stereo partly drawn) [Example 3, (3S)-N-((4-chlorophenyl)(4-cyclopropylphenyl)methyl)-5-oxopyrrolidine-3-carboxamide] | 186 nM
7 | CC1(C)CC(C(NC(=O)[C@@H]2CNC(=O)C2)c2ccc(F)c(Cl)c2F)C1 (single isomer, unassigned) [Example 21A, (S—N—((R or S)-(3-chloro-2,4-difluorophenyl)(3,3-dimethylcyclobutyl)methyl)-5-oxopyrrolidine-3-carboxamide] | 2220 nM
8 | CC1C(=O)NCC1C(=O)NC(c1ccc(Cl)cc1)c1ccc(Cl)cc1 (single isomer, unassigned) [Example 27D, (3(R or S),4(R or S)—N-(bis(4-chlorophenyl)methyl)-4-methyl-5-oxopyrrolidine-3-carboxamide] | 7650 nM
9 | O=C1C[C@H](C(=O)NC(COc2ccccc2)c2ccc(F)c(C(F)(F)F)c2)CN1 (stereo partly drawn) [Example 25, (3S)-N-(1-(4-fluoro-3-(trifluoromethyl)phenyl)-2-phenoxyethyl)-5-oxopyrrolidine-3-carboxamide] | 53 nM
10 | O=C1C[C@H](C(=O)NC(c2ccc(F)c(C(F)(F)F)c2)c2csc(C(F)(F)F)n2)CN1 (stereo partly drawn) [Example 23, (3S)-N-((4-fluoro-3-(trifluoromethyl)phenyl)(2-(trifluoromethyl)thiazol-4-yl)methyl)-5-oxopyrrolidine-3-carboxamide] | 92 nM
11 | O=C1C[C@H](C(=O)NC(c2cccc(Cl)c2)c2cccc(OC(F)F)c2)CN1 (stereo partly drawn) [Example 6, (3S)-N-((3-chlorophenyl)(3-(difluoromethoxy)phenyl)methyl)-5-oxopyrrolidine-3-carboxamide] | 520 nM
12 | CC(C)c1ccc(C(NC(=O)[C@@H]2CNC(=O)C2)c2ccc(Cl)cc2)cc1 (stereo partly drawn) [Example 4, (3S)-N-((4-chlorophenyl)(4-isopropylphenyl)methyl)-5-oxopyrrolidine-3-carboxamide] | 108 nM

More lines, now with the values ahead:

Row | IC50 | SMILES
13 | 32 nM | N#Cc1cc(C(NC(=O)[C@@H]2CNC(=O)C2)c2ccc(F)c(Cl)c2)ccc1F (stereo partly drawn) [Example 22, (3S)—N-((3-chloro-4-fluorophenyl)(3-cyano-4-fluorophenyl)methyl)-5-oxopyrrolidine-3-carboxamide]
14 | 186 nM | O=C1C[C@H](C(=O)NC(c2ccc(Cl)cc2)c2cc(F)cc(C(F)(F)F)c2)CN1 (stereo partly drawn) [Example 7, (3S)-N-((4-chlorophenyl)(3-fluoro-5-(trifluoromethyl)phenyl)methyl)-5-oxopyrrolidine-3-carboxamide]
15 | 2.6 nM | O=C1C[C@H](C(=O)NC(c2ccc(Cl)cc2)c2ccc(F)c(C(F)(F)F)c2)CN1 (single isomer, unassigned) [Example 11A, (S)-N-((R or S)-(4-chlorophenyl)(4-fluoro-3-(trifluoromethyl)phenyl)methyl)-5-oxopyrrolidine-3-carboxamide]
16 | 129 nM | N#Cc1ccc(C(NC(=O)[C@@H]2CNC(=O)C2)c2ccc(F)c(Cl)c2)cc1 (single isomer, unassigned) [Example 13B, (S)-N-((R or S)-(3-chloro-4-fluorophenyl)(4-cyanophenyl)methyl)-5-oxopyrrolidine-3-carboxamide]
17 | 5.3 nM | O=C1C[C@H](C(=O)NC(c2ccc(F)c(Cl)c2)c2ccc(F)c(Cl)c2)CN1 [Example 18, (S)-N-(bis(3-chloro-4-fluorophenyl)methyl)-5-oxopyrrolidine-3-carboxamide]
18 | 2.9 nM | O=C1C[C@H](C(=O)NC(c2ccc(F)c(Cl)c2)c2ccc(Cl)c(C(F)(F)F)n2)CN1 (single isomer, unassigned) [Example 20B, (S)-N-((R or S)-(3-chloro-4-fluorophenyl)(5-chloro-6-(trifluoromethyl)-pyridin-2-yl)methyl)-5-oxopyrrolidine-3-carboxamide]
19 | 51 nM | O=C1C[C@H](C(=O)NC(c2ccc(F)c(Cl)c2)c2ccc(Cl)c(C(F)(F)F)n2)CN1 (single isomer, unassigned) [Example 20A, (S)-N-((R or S)-(3-chloro-4-fluorophenyl)(5-chloro-6-(trifluoromethyl)-pyridin-2-yl)methyl)-5-oxopyrrolidine-3-carboxamide]
20 | 13 nM | O=C1C[C@H](C(=O)NC(c2ccc(Cl)cc2)c2ccc(F)c(Cl)c2)CN1 (mixture of isomers) [Example 1B, (S—N—((R and S)-(3-chloro-4-fluorophenyl)(4-chlorophenyl)methyl)-5-oxopyrrolidine-3-carboxamide]
21 | 5.5 nM | O=C1C[C@H](C(=O)NC(c2ccc(F)c(C(F)(F)F)c2)c2ccc(F)c(Cl)c2F)CN1 (stereo partly drawn) [Example 24, (3S)-N-((3-chloro-2,4-difluorophenyl)(4-fluoro-3-(trifluoromethyl)phenyl)methyl)-5-oxopyrrolidine-3-carboxamide]
22 | 3.4 nM | O=C1C[C@H](C(=O)NC(c2ccc(Cl)cc2)c2ccc(F)c(Cl)c2)CN1 (single isomer, unassigned) [Example 1A, (S—N—((R or S)-(3-chloro-4-fluorophenyl)(4-chlorophenyl)methyl)-5-oxopyrrolidine-3-carboxamide]
23 | 1.2 nM | O=C1C[C@H](C(=O)NC(c2ccc(Cl)cc2)c2ccc(Cl)c(C(F)(F)F)c2)CN1 (single isomer, unassigned) [Example 14A, (S—N—((R or S)-(4-chloro-3-(trifluoromethyl)phenyl)(4-chlorophenyl)methyl)-5-oxopyrrolidine-3-carboxamide]
24 | 139 nM | N#Cc1ccc(C(NC(=O)[C@@H]2CNC(=O)C2)c2ccc(F)c(Cl)c2)cc1 (single isomer, unassigned) [Example 13A, (S)-N-((R or S)-(3-chloro-4-fluorophenyl)(4-cyanophenyl)methyl)-5-oxopyrrolidine-3-carboxamide]
25 | 4.1 nM | O=C1C[C@H](C(=O)NC(c2ccc(Cl)cc2)c2ccc(OC(F)(F)F)cc2)CN1 (single isomer, unassigned) [Example 12B, (S)-N-((R or S)-(4-chlorophenyl)(4-(trifluoromethoxy)phenyl)methyl)-5-oxopyrrolidine-3-carboxamide]
